Assay results reported in patent US20150110716A1, “METHODS OF USING SPECT/CT ANALYSIS FOR STAGING CANCER” (Molecular Insight Pharmaceuticals, Inc., priority 2013, published 2015).
pKd: −log10 of the molar value.

Experiments:
[1] = tested on: lesions in lymph nodes and bone of men with prostate cancer; experiment: Phase 1 cross-over study: whole-body and SPECT/CT lesion imaging; format: in vivo, human; details: patient with prior prostatectomy and rising PSA, FIG. 2C
From the text: (§1) Pharmacokinetics, Biodistribution, Dosimetry, Metabolism & Excretion of compound represented by Formula (1) and Formula (2). Methods: Fourteen subjects (7 metastatic prostate cancer patients and 7 healthy, normal males) were enrolled in a phase 1, single-blind, randomized, cross-over study in which subjects were randomly administered a single dose (740 MBq; 20 mCi) of a compound represented by Formula (1) and a similar chemical analog, a compound represented by Formula (2), 14 days apart. […] (FIGS. 1 and 2A)

[2] = Phase 1 cross-over study: pharmacokinetics, biodistribution, dosimetry, excretion; format: in vivo, human
From the text: as §1

[3] = molecular target: PSMA (Homo sapiens, UniProt Q04609); experiment: In vitro binding studies to PSMA; details: read-out: affinity of binding to PSMA
Chain of PSMA (Q04609 whole entry): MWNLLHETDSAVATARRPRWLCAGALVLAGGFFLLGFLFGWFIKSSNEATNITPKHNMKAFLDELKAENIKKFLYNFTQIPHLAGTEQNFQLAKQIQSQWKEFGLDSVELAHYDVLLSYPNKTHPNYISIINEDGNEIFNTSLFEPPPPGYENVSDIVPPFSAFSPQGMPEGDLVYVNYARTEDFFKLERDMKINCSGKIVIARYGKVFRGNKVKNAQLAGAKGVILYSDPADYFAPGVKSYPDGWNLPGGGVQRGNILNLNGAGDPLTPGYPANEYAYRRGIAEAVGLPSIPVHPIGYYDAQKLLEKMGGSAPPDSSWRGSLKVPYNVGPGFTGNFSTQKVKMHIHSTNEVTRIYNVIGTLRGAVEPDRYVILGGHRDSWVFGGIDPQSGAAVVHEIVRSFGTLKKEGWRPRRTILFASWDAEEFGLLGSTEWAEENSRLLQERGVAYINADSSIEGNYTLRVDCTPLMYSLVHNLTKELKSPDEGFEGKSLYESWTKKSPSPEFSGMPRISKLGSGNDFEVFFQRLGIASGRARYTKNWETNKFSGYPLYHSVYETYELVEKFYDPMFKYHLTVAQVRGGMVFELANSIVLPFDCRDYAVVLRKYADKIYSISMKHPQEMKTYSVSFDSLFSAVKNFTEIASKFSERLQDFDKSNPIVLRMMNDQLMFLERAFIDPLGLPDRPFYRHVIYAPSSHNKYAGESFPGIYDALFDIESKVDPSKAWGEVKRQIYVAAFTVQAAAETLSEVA
From the text: As illustrated, the dimeric backbone of both Formula (1) and Formula (2) compounds contain carboxylate residues that bind to the basic substrate binding pockets of the protein. The radiolabel chelator is attached to the side chain carboxyl residue (Formula (1)) or the side chain amine group (Formula (2)) through an intervening linker.

Structure (SMILES) | detection of metastatic lesions compared with bone scan [1] | period over which compound is cleared from blood ([2]; FIG. 1A) | physiological clearance rate ([2]; Formula (2) compared with Formula (1)) | rate of clearance from blood ([2]; Formula (2) compared with Formula (1), FIG. 1A) | clearance from these organs ([2]; Formula (2) compared with Formula (1), full body scans over 24 hours) | tissues of accumulation ([2]; in vivo pharmacokinetic and biodistribution studies) | estimated radiation dose (dosimetry) ([2]; single dose 740 MBq (20 mCi)) | amount excreted in urine ([2]; urine samples over 30 hours post administration, Formula (2) compared with Formula (1), FIG. 1B) | pKd [3]
N[C@@H](CCCC[N+]12Cc3n(CC(=O)O)cc[n+]3[99Tc-2]1[n+]1ccn(CC(=O)O)c1C2)C(=O)NCCCCC(NC(=O)NC(CCC(=O)O)C(=O)O)C(=O)O.[C-]#[O+].[C-]#[O+].[C-]#[O+] (stereo partly drawn) [Formula (2)] | identified multiple foci of metastatic cancer not seen in the bone scan | about 1500 minutes | more rapid | greater | clears more rapidly | liver, kidneys and salivary glands as well as the urinary bladder and prostate tissue | within the clinically acceptable range | significantly greater amount | 
N[C@@H](CCCC[N+]12Cc3n(CC(=O)O)cc[n+]3[Tc-2]1[n+]1ccn(CC(=O)O)c1C2)C(=O)NCCCCC(NC(=O)NC(CCC(=O)O)C(=O)O)C(=O)O.[C-]#[O+].[C-]#[O+].[C-]#[O+] (stereo partly drawn) [Formula (2)] |  |  |  |  |  |  |  |  | 7.51
